Measurements taken from paper PMC8948292, “Combining PEGylated mito-atovaquone with MCT and Krebs cycle redox inhibitors as a potential strategy to abrogate tumor cell proliferation” (Scientific Reports, 2022).
Like-named read-outs stand apart in the source and are kept apart here.

Experiments:
MiaPaCa-2 cells = test: Cell proliferation (cell confluence), IncuCyte Live-Cell Analysis System; format: cell-based, human; conditions: for IC50: Homo sapiens; for Inhibition of cell proliferation in combination with AZD-3965: combined with AZD-3965
Procedure: The following cell lines were obtained from the American Type Culture Collection (Manassas, VA), where they were regularly authenticated: MiaPaCa-2 (ATCC Cat# CRL-1420, human pancreatic cancer cells), U87MG (ATCC Cat# HTB-14, human brain cancer cells), A549 (ATCC Cat# CCL-185, lung cancer cells), and HCT-116 (ATCC Cat# CCL-247, colon cancer cells). All cell lines were grown at 37 °C in 5% carbon dioxide. MiaPaCa-2 cells were maintained in Dulbecco's Modified Eagle Medium (Thermo Fisher Scientific, Waltham, MA; Cat# 11965) supplemented with 10% fetal bovine serum. U87MG, A549, and HCT-116 cells were maintained in RPMI 1640 medium (Thermo Fisher Scientific, Cat# 11875), supplemented with 10% fetal bovine serum. All cells were stored in liquid nitrogen and used within 20 passages after thawing.
The IncuCyte Live-Cell Analysis System was used to monitor cell proliferation[3],[33],[67]. As shown in previous publications[3],[67], this imaging system is probe-free and noninvasive, and enables continuous monitoring of cell confluence over several days. The increase in the percentage of cell confluence was used as a surrogate marker of cell proliferation. In a 96-well plate, cells were plated at 1,000 cells per well in triplicates and left to adhere overnight. Cells were then treated with Mito-PEG-ATO analogs, and the cell confluency was recorded over several days in the IncuCyte Live-Cell Analysis System.

[1] = tested on: mitochondrial respiration (OCR) in intact MiaPaCa-2 cells; test: Intact cell mitochondrial respiration (basal OCR), Seahorse XF-96; format: cell-based, human; conditions: for OCR (pmol/min/µg protein): intact MiaPaCa-2 cells, baseline OCR, mean, n=4; for IC50: Homo sapiens, read-out: IC50, inhibition of basal OCR in intact cells
Procedure: (§1) Mitochondrial oxygen consumption was measured using the Seahorse XF-96 Extracellular Flux Analyzer (Agilent, North Billerica, MA)[3],[33],[67],[68]. To determine the intact cell mitochondrial function of MiaPaCa-2 cells in response to Mito-PEG-ATO analogs, we used the bioenergetic function assay previously described[2],[3]. […] From these measurements, indices of mitochondrial function were determined as previously described[2],[3]. For mitochondrial complex activities assays, after cells were treated with Mito-PEG-ATO analogs for 24 h, the OCR-based assessment of mitochondrial complex activities was carried out on acutely permeabilized cells in the presence of different mitochondrial substrates, i.e., pyruvate/malate for complex I and duroquinol for complex III[3],[32],[34],[69]. Rotenone, malonate, and antimycin A (Sigma-Aldrich, St. Louis, MO) were used as specific inhibitors of mitochondrial complexes I, II, and III, respectively. Briefly, cells that were intact after treatments were immediately permeabilized using the Seahorse XF Plasma Membrane Permeabilizer (Agilent). The mitochondrial complex I-induced OCR was assayed in mannitol and sucrose buffer[69] containing 10 mM pyruvate and 1.5 mM malate (substrates for complex I) and 10 mM malonate (which inhibits complex II activities). The mitochondrial complex III-driven OCR was assayed in a mannitol and sucrose buffer containing 0.5 mM duroquinol (substrate for complex III) as well as 1 µM rotenone and 10 mM malonate (which inhibit both complex I and II activities). The IC50 values were determined as previously reported.

[2] = target: mitochondrial complex III (MiaPaCa-2 cells) (Homo sapiens, UniProt P00156); test: Complex III-dependent oxygen consumption in permeabilized cells, Seahorse XF-96; format: cell-based
Chain of mitochondrial complex III (MiaPaCa-2 cells) (P00156 whole entry): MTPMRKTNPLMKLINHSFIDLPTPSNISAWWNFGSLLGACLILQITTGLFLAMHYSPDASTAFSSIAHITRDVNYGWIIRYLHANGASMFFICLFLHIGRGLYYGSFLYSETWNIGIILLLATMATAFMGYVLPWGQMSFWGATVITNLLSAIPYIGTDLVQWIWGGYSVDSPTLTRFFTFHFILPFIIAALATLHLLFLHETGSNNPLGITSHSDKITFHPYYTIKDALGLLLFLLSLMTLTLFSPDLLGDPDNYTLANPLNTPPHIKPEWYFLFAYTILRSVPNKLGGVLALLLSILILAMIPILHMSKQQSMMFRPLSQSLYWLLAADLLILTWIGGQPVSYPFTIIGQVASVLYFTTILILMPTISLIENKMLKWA
Chain of mitochondrial complex III (MiaPaCa-2 cells) (P47985 whole entry partner): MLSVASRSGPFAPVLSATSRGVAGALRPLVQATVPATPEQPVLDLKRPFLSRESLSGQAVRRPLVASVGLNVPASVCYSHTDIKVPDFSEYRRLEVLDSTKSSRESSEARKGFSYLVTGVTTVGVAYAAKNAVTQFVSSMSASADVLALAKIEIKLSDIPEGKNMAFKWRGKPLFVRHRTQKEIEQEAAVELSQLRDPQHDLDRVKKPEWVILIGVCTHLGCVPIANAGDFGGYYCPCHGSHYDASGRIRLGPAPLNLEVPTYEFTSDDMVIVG
Procedure: as §1

[3] = MiaPaCa-2 cells, 1 µM, control ~90% confluence
[4] = MiaPaCa-2 cells, 3 µM, control ~90% confluence
[5] = MiaPaCa-2 cells, 10 µM, control ~90% confluence

Question: `CC(=O)N[C@@H](CS)C(=O)O` [N-acetylcysteine, reference compound] was tested. Which “Restoration of cell proliferation in cells treated with Mito-PEG5-ATO” value (MiaPaCa-2 cells; 10 mM, cells treated with Mito-PEG5-ATO, not shown) did it give?
Answer: did not restore cell proliferation

Question: How did the IC50 (MiaPaCa-2 cells; MIA PaCa-2, MiaPaCa-2 cells, inhibitor alone, control ~90% confluence, read-out: IC50 (cell proliferation) without Mito-PEG5-ATO) turn out when `O=C(Cc1cccc(OC(F)(F)F)c1)Nc1ccc(CCCCc2nnc(NC(=O)Cc3ccccn3)s2)nn1` [CB-839, Telaglenastat, reference compound] was run?
Answer: 19 µM

Question: What about the “Inhibition of cell proliferation in combination with Mito-PEG5-ATO (combination index)” value (MiaPaCa-2 cells; MiaPaCa-2 cells, combined with Mito-PEG5-ATO) of the same molecule?
Answer: exhibits synergy

Question: For `[H]/N=C(/N)N/C(=N/[H])NCCc1ccccc1` [phenformin, reference compound], which “Inhibition of cell proliferation in combination with AZD-3965” value (MiaPaCa-2 cells; MiaPaCa-2 cells) is on record?
Answer: Synergistic inhibition

Question: What does the source list for `O=C1C(OCCOCC[P+](c2ccccc2)(c2ccccc2)c2ccccc2)=C([C@H]2CC[C@H](c3ccc(Cl)cc3)CC2)C(=O)c2ccccc21.[Br-]` [Mito-PEG2-ATO, [2-(2-((3-(trans-4-(4-chlorophenyl)cyclohexyl)-1,4-dioxo-1,4-dihydronaphthalen-2-yl)oxy)ethoxy)ethyl]triphenylphosphonium bromide]?
Answer: IC50 (MiaPaCa-2 cells; MIA PaCa-2, read-out: IC50, inhibition of cell proliferation): 0.3 µM; Cell confluence (% of control) (MiaPaCa-2 cells; MiaPaCa-2 cells, 0.003 µM, control ~90% confluence): 95.33 % of control; Cell confluence (% of control) (MiaPaCa-2 cells; MiaPaCa-2 cells, 0.01 µM, control ~90% confluence): 101.09 % of control; Cell confluence (% of control) (MiaPaCa-2 cells; MiaPaCa-2 cells, 0.03 µM, control ~90% confluence): 98.91 % of control; Cell confluence (% of control) (MiaPaCa-2 cells; MiaPaCa-2 cells, 0.05 µM, control ~90% confluence): 101.49 % of control; Cell confluence (% of control) (MiaPaCa-2 cells; MiaPaCa-2 cells, 0.1 µM, control ~90% confluence): 100.20 % of control; Cell confluence (% of control) (MiaPaCa-2 cells; MiaPaCa-2 cells, 0.2 µM, control ~90% confluence): 91.59 % of control; Cell confluence (% of control) (MiaPaCa-2 cells; MiaPaCa-2 cells, 0.3 µM, control ~90% confluence): 54.02 % of control; Cell confluence (% of control) (MiaPaCa-2 cells; MiaPaCa-2 cells, 0.5 µM, control ~90% confluence): 5.85 % of control; Cell confluence (% of control) (MiaPaCa-2 cells; [3]): 3.35 % of control; Cell confluence (% of control) (MiaPaCa-2 cells; [4]): 3.28 % of control; Cell confluence (% of control) (MiaPaCa-2 cells; [5]): 2.85 % of control; OCR (pmol/min/µg protein) ([1]; 0.01 µM, 24 h treatment): 16.21 pmol/min/µg protein; OCR (pmol/min/µg protein) ([1]; 0.1 µM, 24 h treatment): 14.62 pmol/min/µg protein; OCR (pmol/min/µg protein) ([1]; 0.2 µM, 24 h treatment): 14.19 pmol/min/µg protein; OCR (pmol/min/µg protein) ([1]; 0.3 µM, 24 h treatment): 13.58 pmol/min/µg protein; OCR (pmol/min/µg protein) ([1]; 0.4 µM, 24 h treatment): 12.73 pmol/min/µg protein; OCR (pmol/min/µg protein) ([1]; 0.5 µM, 24 h treatment): 10.74 pmol/min/µg protein; OCR (pmol/min/µg protein) ([1]; 0.75 µM, 24 h treatment): 8.54 pmol/min/µg protein; OCR (pmol/min/µg protein) ([1]; 1 µM, 24 h treatment): 6.82 pmol/min/µg protein; OCR (pmol/min/µg protein) ([1]; 3 µM, 24 h treatment): 1.26 pmol/min/µg protein; OCR (pmol/min/µg protein) ([1]; 10 µM, 24 h treatment): -0.10 pmol/min/µg protein; IC50 ([1]; MIA PaCa-2, 24 h): 0.76 µM; Complex III activity (OCR, % of control) ([2]; 0.01 µM): 103.6 % of control; Complex III activity (OCR, % of control) ([2]; 0.1 µM): 95.3 % of control; Complex III activity (OCR, % of control) ([2]; 0.2 µM): 101.4 % of control; Complex III activity (OCR, % of control) ([2]; 0.3 µM): 99.3 % of control; Complex III activity (OCR, % of control) ([2]; 0.4 µM): 99.1 % of control; Complex III activity (OCR, % of control) ([2]; 0.5 µM): 88.9 % of control; Complex III activity (OCR, % of control) ([2]; 0.75 µM): 75.4 % of control; Complex III activity (OCR, % of control) ([2]; 1 µM): 64.3 % of control; Complex III activity (OCR, % of control) ([2]; 3 µM): 15.0 % of control; IC50 ([2]; MiaPaCa-2 cells, 24 h treatment, antimycin A-inhibitable OCR, read-out: IC50, complex III-induced oxygen consumption (Complex III activity)): 1.2 µM

Question: How did the “Inhibition of cell proliferation in combination with AZD-3965” value (MiaPaCa-2 cells; MiaPaCa-2 cells) turn out when `CN(C)C(=N)N=C(N)N` [metformin, reference compound] was run?
Answer: Synergistic inhibition

Question: With `COCCOCCOCCOCCOC1=C([C@H]2CC[C@H](c3ccc(Cl)cc3)CC2)C(=O)c2ccccc2C1=O` [PEG4-ATO, 2-((2,5,8,11-tetraoxatridecan-13-yl)oxy)-3-(trans-4-(4-chlorophenyl)cyclohexyl)naphthalene-1,4-dione] as the molecule, how does the IC50 (MiaPaCa-2 cells; MIA PaCa-2, MiaPaCa-2 cells, determined when control cells reached ~90% confluence, read-out: IC50, inhibition of cell proliferation) read?
Answer: 24 µM

Question: What about the “Cell confluence (% of control)” value (MiaPaCa-2 cells; [3]) of the same molecule?
Answer: 96.77 % of control

Question: And the “Cell confluence (% of control)” value (MiaPaCa-2 cells; [4])?
Answer: 98.45 % of control

Question: And the “Cell confluence (% of control)” value (MiaPaCa-2 cells; MiaPaCa-2 cells, 5 µM, control ~90% confluence)?
Answer: 92.22 % of control

Question: What about the “Cell confluence (% of control)” value (MiaPaCa-2 cells; [5]) of the same molecule?
Answer: 88.90 % of control

Question: What about the “Cell confluence (% of control)” value (MiaPaCa-2 cells; MiaPaCa-2 cells, 15 µM, control ~90% confluence) of the same molecule?
Answer: 79.02 % of control

Question: And the “Cell confluence (% of control)” value (MiaPaCa-2 cells; MiaPaCa-2 cells, 20 µM, control ~90% confluence)?
Answer: 50.78 % of control

Question: And the “Cell confluence (% of control)” value (MiaPaCa-2 cells; MiaPaCa-2 cells, 30 µM, control ~90% confluence)?
Answer: 33.44 % of control

Question: And the “Cell confluence (% of control)” value (MiaPaCa-2 cells; MiaPaCa-2 cells, 35 µM, control ~90% confluence)?
Answer: 24.27 % of control

Question: What about the “Cell confluence (% of control)” value (MiaPaCa-2 cells; MiaPaCa-2 cells, 40 µM, control ~90% confluence) of the same molecule?
Answer: 17.96 % of control

Question: And the “Cell confluence (% of control)” value (MiaPaCa-2 cells; MiaPaCa-2 cells, 50 µM, control ~90% confluence)?
Answer: 10.27 % of control

Question: What about the “OCR (pmol/min/µg protein)” value ([1]; 1 µM, 24 h treatment) of the same molecule?
Answer: 14.02 pmol/min/µg protein

Question: What about the “OCR (pmol/min/µg protein)” value ([1]; 3 µM, 24 h treatment) of the same molecule?
Answer: 11.47 pmol/min/µg protein

Question: What about the “OCR (pmol/min/µg protein)” value ([1]; 10 µM, 24 h treatment) of the same molecule?
Answer: 8.99 pmol/min/µg protein

Question: What about the “OCR (pmol/min/µg protein)” value ([1]; 15 µM, 24 h treatment) of the same molecule?
Answer: 8.66 pmol/min/µg protein

Question: And the “OCR (pmol/min/µg protein)” value ([1]; 17.5 µM, 24 h treatment)?
Answer: 8.14 pmol/min/µg protein

Question: And the “OCR (pmol/min/µg protein)” value ([1]; 20 µM, 24 h treatment)?
Answer: 6.77 pmol/min/µg protein

Question: And the “OCR (pmol/min/µg protein)” value ([1]; 22.5 µM, 24 h treatment)?
Answer: 6.79 pmol/min/µg protein

Question: What about the “OCR (pmol/min/µg protein)” value ([1]; 25 µM, 24 h treatment) of the same molecule?
Answer: 5.93 pmol/min/µg protein

Question: And the “OCR (pmol/min/µg protein)” value ([1]; 30 µM, 24 h treatment)?
Answer: 6.26 pmol/min/µg protein

Question: And the “OCR (pmol/min/µg protein)” value ([1]; 40 µM, 24 h treatment)?
Answer: 4.53 pmol/min/µg protein

Question: What about the “OCR (pmol/min/µg protein)” value ([1]; 50 µM, 24 h treatment) of the same molecule?
Answer: 2.22 pmol/min/µg protein

Question: And the IC50 ([1]; MIA PaCa-2, MiaPaCa-2 cells, 24 h treatment)?
Answer: 22 µM
